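Exposure lasted 48 hours, with cells grown in 96-well plates and compounds tested at five concentrations. GI50 is the concentration that inhibits growth by half. Definition used: TGI = concentration required for complete inhibition of growth.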
Legend:
Assay in all cases: growth of human tumour cells (NCI), 48 h
UACC-62 melanoma = system: UACC-62 melanoma
HT29 colon = system: HT29 colon
SK-MEL-2 melanoma = system: SK-MEL-2 melanoma
EKVX NSCLC = system: EKVX NSCLC
SF-268 CNS = system: SF-268 CNS
NCI-H522 lung = system: NCI-H522 lung
OVCAR-4 ovarian = system: OVCAR-4 ovarian
KM12 colon = system: KM12 colon
LOX IMVI melanoma = system: LOX IMVI melanoma
NCI/ADR-RES ovarian = system: NCI/ADR-RES ovarian

Compound	TGI (UACC-62 melanoma) [µM]	TGI (HT29 colon) [µM]	TGI (SK-MEL-2 melanoma) [µM]	TGI (EKVX NSCLC) [µM]	TGI (SF-268 CNS) [µM]	TGI (NCI-H522 lung) [µM]	TGI (OVCAR-4 ovarian) [µM]	TGI (KM12 colon) [µM]	TGI (LOX IMVI melanoma) [µM]	GI50 (UACC-62 melanoma) [µM]	GI50 (HT29 colon) [µM]	GI50 (SK-MEL-2 melanoma) [µM]	GI50 (EKVX NSCLC) [µM]	GI50 (SF-268 CNS) [µM]	GI50 (NCI-H522 lung) [µM]	GI50 (OVCAR-4 ovarian) [µM]	GI50 (KM12 colon) [µM]	GI50 (LOX IMVI melanoma) [µM]	TGI (NCI/ADR-RES ovarian) [µM]	GI50 (NCI/ADR-RES ovarian) [µM]
C=C(C)[C@H](O)C(O)CC(C)[C@@H]1CCC23CC12CCC1[C@@]2(C)CCC(OC(C)=O)C(C)(C)C2CC(OC2OC(COC(C)=O)C(O)C(O)C2O)[C@]13C (stereo partly specified)	9.4	8.77	16.2	12.7	11	9.91	14	11.3	10.7											
Cc1cccc2c1C/C(=C1\CCc3c(C)cccc31)C2=O	> 100	> 100	> 100	> 100	> 100		> 100	> 100	> 100											
COC1=CC(=O)[C@]2(C)[C@H](C1=O)C(C)[C@H]2c1ccccc1 (stereo partly specified)	> 100	> 100	> 100	> 100	> 100	> 100	> 100	> 100	> 100											
COc1cc([C@@H]2OC(=O)C3C2C(=O)O[C@H]3c2cc(OC)c(OC)c(OC)c2)cc(OC)c1OC (stereo partly specified)	> 100	> 100	> 100	> 100	> 100	> 100	> 100	> 100	> 100											
CCOc1ccccc1NC(=O)C1=C(C)NC(C)=C(C(=O)Nc2ccccc2OCC)C1c1ccc(NC(C)=O)cc1		> 100	58.6	> 100	> 100	23.6	> 100	> 100	> 100											
CCOC(=O)NC(=O)c1cn(CCN2CCN(C(=O)NCCCCCCNC(=O)N3CCN(CCn4cc(C(=O)NC(=O)OCC)c(=O)n(CCN(CC)CC)c4=O)CC3)CC2)c(=O)n(CCC(CC)CC)c1=O	> 100	> 100	> 100	> 100	> 100	> 100	> 100	> 100	> 100											
C[CH2][Sn]([CH2]C)([O]C(=O)c1cccc(F)c1)[O][Sn]([CH2]C)([CH2]C)[O]C(=O)c1cccc(F)c1	32.7	> 100	30.3	29.1	32.9	2.65	46.7	> 100	29.6	18.4	35.4	16.4	15.3	17.9	1.32	22.8	> 100	15.9		
c1ccc2c3c([nH]c2c1)C1(CCCCC1)c1c([nH]c2ccccc12)C31CCCCC1	64.5	> 100	48.1	61.7	95.4	> 100	26	> 100	> 100											
N#C[S-].[Au+].c1ccc(CN2[CH-]N(Cc3ccccc3)C(c3ccccc3)=C2c2ccccc2)cc1			1.26		2.49		2.1	2.79				0.337		0.431		0.413	0.527			
O=C1C(=O)c2ccccc2C(O)=C1CCCCCCCCC1CCCCC1	18.4	31	30.2		22.6	25.7	> 100	23.1	15.8										25.3	
Cc1ccc(N2C(=O)/C(=C/c3ccc(N(CCC#N)CCC#N)cc3C)N=C2c2cc([N+](=O)[O-])ccc2Cl)cc1	> 100	> 100	> 100		> 100	> 100	> 100	> 100												
CC1=Nn2c(nnc2-c2ccc(N)cc2)NC(C)(C)C1	> 100	> 100	> 100	> 100	> 100	> 100	> 100	> 100	> 100											
CC1(C)C2C/C(=C\c3ccccc3)C(=O)C1C2 (stereo unspecified)	> 100	> 100	> 100	> 100	> 100	> 100	> 100	> 100	> 100											
Cc1cc(=O)oc2cc(OCc3nc4ccccc4c(=O)[nH]3)ccc12	> 100	> 100	> 100	> 100	> 100	> 100	> 100	> 100	> 100											
CN1CCn2c(c(Sc3ccc(C(=O)NO)cc3)c3ccccc32)C1=O	3.24	9.38	4.1		3.85	2.66	9.99	3.92	3.66	1.44	2.92	2.01		1.92	1.13	2.14	1.85	1.78	> 87.1	8.82
Cc1cccc2c1C(=O)OC2(C)c1cccc2ccccc12 (stereo unspecified)		> 100	> 100	> 100	> 100	40.4	67.4	> 100	> 100											
NC(CCSC(F)F)C(=O)O (stereo unspecified)	> 100	> 100	> 100	> 100	> 100	> 100	> 100	> 100	> 100											
CC12CC3CC(C1)CC(N=[N+]=[N-])(C3)C2	> 100	> 100	> 100	> 100		> 100	> 100	> 100	> 100											
Cc1ccc(/C=C2\CCCC\C2=N\O)cc1	> 100	> 100		> 100	> 100		> 100		> 100											
O=C(/C=C1/NC(=O)CS1)Nc1ccccc1	> 100	> 100	> 100	> 100	> 100	> 100	> 100	> 100												
COc1cc([N+](=O)[O-])c(OC)cc1-c1nc2sc(Cl)cn2c1/C=N/NC(=N)N/N=C/c1c(-c2cc(OC)c([N+](=O)[O-])cc2OC)nc2sc(Cl)cn12		> 100					5.71	2.95			3.78					2.42	1.54		> 100	> 100

Compound	TGI (UACC-62 melanoma) [µM]	TGI (HT29 colon) [µM]	TGI (SK-MEL-2 melanoma) [µM]	TGI (EKVX NSCLC) [µM]	TGI (SF-268 CNS) [µM]	TGI (NCI-H522 lung) [µM]	TGI (OVCAR-4 ovarian) [µM]	TGI (KM12 colon) [µM]	TGI (LOX IMVI melanoma) [µM]	GI50 (UACC-62 melanoma) [µM]	GI50 (HT29 colon) [µM]	GI50 (SK-MEL-2 melanoma) [µM]	GI50 (EKVX NSCLC) [µM]	GI50 (SF-268 CNS) [µM]	GI50 (NCI-H522 lung) [µM]	GI50 (OVCAR-4 ovarian) [µM]	GI50 (KM12 colon) [µM]	GI50 (LOX IMVI melanoma) [µM]	TGI (NCI/ADR-RES ovarian) [µM]	GI50 (NCI/ADR-RES ovarian) [µM]
CC(=O)c1c[nH]cc1CO			> 10		> 10			> 10	> 10										> 10	
c1ccc(SC(CCCCOC2CCCCO2)Sc2ccccc2)cc1 (stereo unspecified)	> 100	> 100	> 100	> 100	> 100	53.8	> 100	> 100	> 100											
Cc1nn(-c2nc3ccccc3[nH]2)c2c1C(c1ccc3c(c1)OCO3)CC(=O)N2 (stereo unspecified)	3.13	> 23.6	6.96		11.7	5.41	> 87.4	5.45		1.66	3.01	2.82		3.38	2.22	3.51	2.33		> 100	4.43
C/C(=N\O)C(CN1CCCCC1)C(c1ccccc1)c1c(O)c2ccccc2oc1=O (stereo unspecified)	> 100	> 100	> 100	> 100	> 100	> 100	> 100		> 100											
[C-]#[N+]C(C)(C)C[C@H]1CC(C)C2CCC(C)C3([N+]#[C-])CCC(=C)C1[C@H]23 (stereo partly specified)	11.5	11.7	2.67	35.8	10.5	12.2	13.1	11.8	0.421											
O=C(N/C(=C\c1ccc(Oc2ccc(Cl)c(Cl)c2)cc1)c1nc2ccccc2[nH]1)c1ccccc1	33.5	32.6	37.7	50.5	37.1	35.5	54.2	30.4												
CS/C(c1ccccc1)=[N+](/C)[O-]	> 100	> 100	> 100	> 100	> 100	> 100	> 100	> 100	> 58.2											
COc1ccccc1/C=N/N=C(\N)NO	33.7	> 100	> 100	> 100	> 100	66.9	> 100	> 100	> 100											
COc1cc2cccc(NC(=O)c3cc(OC)c(OC)c(OC)c3Br)c2cc1OC	26.1	71.9	49	75.9	59.3	42.1	34.3	27.5												
C=CCN=C1NC(=O)C(CC(=O)Nc2ccc(C)cc2)S1 (stereo unspecified)	> 100	> 100	> 100	> 100	> 100	> 100	> 100	> 100	> 100											
COc1cc(C(=O)CC2(O)C(=O)Nc3c(Cl)cc(Cl)cc32)ccc1O (stereo unspecified)		> 100	> 100	> 100	> 100	> 100	> 100	> 100	> 100											
COc1cc(/C=C2/C(=O)NC(Cc3cc(OC)c(OC)c(C)c3OC)C(=O)N2Cc2ccccc2)c(OC)c(C)c1OC (stereo unspecified)	> 100	> 100	66.8	> 100	> 100	60.2	> 100	> 100	> 100											
COc1ccc2c(c1)CC1c3c(cc4c(c3-2)OCO4)CCN1C (stereo unspecified)	47.6	> 100	72.3	81.5		38.7	52.2	> 100												
O=C(CCCCCCC(=O)Nc1ccc2c(c1)/C(=C/c1ccc[nH]1)C(=O)N2)NO	1.39	8.51	7.13		13.3	0.891	52	> 23.2	2.08	0.287	0.506	0.851		1.05	0.0829	1.27	0.894	0.548	> 100	3.86
COc1ccc2nc(C)cc(Nc3ccccc3O)c2c1	39.5	> 100	86.8		> 100	> 100	> 100	> 100	39	17.9	23.9	27.1		29.2	45.2	22.4	35.9	18.5	> 100	47.2
Cc1ccc(C2=C(c3ccccc3)C(Br)(c3ccccc3)C(c3ccccc3)=C2c2ccc(C)cc2)cc1	> 100	> 100	> 100	> 100	> 100	> 100	> 100	> 100												
N=C(N)c1ccc(-c2ccc(-c3cccs3)s2)nc1	3.22	3.83	4.2		10.7	3.44	3.32	3.6		1.7	1.6	2.19		2.74	1.61	0.944	1.88		14.5	3.11
O=C1C[C@H]2CC3(CC[C@H]2CN1)OCCO3	> 100	> 100	> 100	> 100	> 100	> 100	> 100	> 100	> 100											
C/C(=C\CC[C@]1(C)OC(C)(C)OC1CC/C(C)=C/CO[Si](c1ccccc1)(c1ccccc1)C(C)(C)C)CC/C=C/CO[Si](C)(C)C(C)(C)C (stereo partly specified)	> 100	> 100	> 100	> 100	> 100	> 100	> 100	> 100	> 100											
Oc1c(N=Nc2ccccc2)c2ccccc2c2ccc3ccccc3c12	> 100	> 100	> 100	> 100	> 100	> 100	> 100	> 100											> 100	
